Earlier results as cited in publication PMC7774954, “Interactomic affinity profiling by holdup assay: Acetylation and distal residues impact the PDZome-binding specificity of PTEN phosphatase” (PLoS ONE, 2020).
Where no end group is shown, it is not given here. The star is where a group is joined. Biotin = O=C1N[C@H]2[C@H](CS[C@H]2CCCCC(=O)*)N1; TTDS = NCCCOCCOCCOCCCNC(=O)CCC(=O)*

Assays:
[1] = biological target: SNX27 PDZ 1; conditions: ITC, read-out: KD (affinity provided in the literature); cited from earlier work
Description: (§1) Table 1 PDZ domains interactors for PTEN according to literature and the present study. | column: KD ^d

[2] = biological target: MAST2 PDZ 1; conditions: ITC, read-out: KD (affinity provided in the literature); cited from earlier work
Description: as §1

[3] = biological target: PARD3 PDZ 3; conditions: FP, read-out: KD (affinity provided in the literature); cited from earlier work
Description: as §1

[4] = system: PTPN13-4 domain; conditions: cited from earlier work
Description: It has been shown that the binding of the tumor suppressor PTEN, through its PBM, to PDZ dom ...

Substance: PTEN: PTEN constructs of published studies; phosphatase and tensin homolog deleted on chromosome 10 ({Biotin-TTDS}-DEDQHTQITKV)
- Kd [1]: 38 µM
- Kd [2]: 2000 nM
- Kd [3]: 19 µM
- interaction with PTPN13-4 (in words) [4]: absence of interaction
